Paper PMC2229492 (The Journal of General Physiology, 2000)
Numbering of substitutions follows the chain as printed.

Experiments:
[1] = biological target: T1, rat olfactory CNG (OLF) channel (Rattus norvegicus, UniProt Q00195); experiment: inside-out patch recording, cGMP dose-response; type: cell-based
T1 sequence (Q00195 1-664): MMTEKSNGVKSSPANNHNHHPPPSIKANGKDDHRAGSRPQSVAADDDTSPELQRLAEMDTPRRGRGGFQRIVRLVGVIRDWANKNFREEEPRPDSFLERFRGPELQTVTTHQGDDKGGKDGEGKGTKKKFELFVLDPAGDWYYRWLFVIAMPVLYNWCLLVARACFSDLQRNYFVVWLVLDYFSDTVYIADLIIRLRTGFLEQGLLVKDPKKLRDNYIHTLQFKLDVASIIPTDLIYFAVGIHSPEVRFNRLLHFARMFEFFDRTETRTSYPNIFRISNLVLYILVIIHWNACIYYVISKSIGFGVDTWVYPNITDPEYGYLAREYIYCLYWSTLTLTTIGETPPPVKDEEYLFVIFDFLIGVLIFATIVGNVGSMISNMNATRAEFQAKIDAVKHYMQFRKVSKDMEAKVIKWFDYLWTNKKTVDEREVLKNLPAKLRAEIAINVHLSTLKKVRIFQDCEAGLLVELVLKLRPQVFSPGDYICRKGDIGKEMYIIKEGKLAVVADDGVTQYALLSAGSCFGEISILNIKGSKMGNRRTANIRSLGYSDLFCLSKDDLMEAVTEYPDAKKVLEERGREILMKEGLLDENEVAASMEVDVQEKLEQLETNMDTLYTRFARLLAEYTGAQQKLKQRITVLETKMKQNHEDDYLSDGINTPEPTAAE

[2] = biological target: T2, rat olfactory CNG (OLF) channel (Rattus norvegicus, UniProt Q00195, W332Y); experiment: inside-out patch recording, cGMP dose-response; type: cell-based
T2 sequence (Q00195 1-664 W332Y): T1 sequence (Q00195 1-664) with W332Y

EC50 [1]: 2.47 µM
EC50 [2]: 17.7 µM
Compound: Nc1nc2c(ncn2[C@@H]2O[C@@H]3COP(=O)(O)O[C@H]3[C@H]2O)c(=O)[nH]1 [cGMP]
